Reference: PubChem BioAssay (NCI)
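A five-concentration, 48-hour dose response in 96-well plates underlies each endpoint, interpolated linearly between surrounding concentrations. Abbreviation: GI50, concentration required for 50% inhibition of growth. TGI marks complete inhibition of growth.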

Legend:
Test in all cases: growth of human tumour cells (NCI), 48 h
[1] = test system: COLO 205 colon
[2] = test system: DU-145 prostate
[3] = test system: HOP-92 NSCLC
[4] = test system: OVCAR-4 ovarian
[5] = test system: SK-MEL-5 melanoma
[6] = test system: KM12 colon
[7] = test system: 786-0 renal
[8] = test system: HT29 colon
[9] = test system: SK-MEL-28 melanoma
[10] = test system: LOX IMVI melanoma

SMILES: CSc1ccc(C(=O)/C=C/c2ccccc2Cl)cc1
- GI50 [1]: 33.5 µM
- TGI [1]: > 100 µM
- GI50 [2]: 13.9 µM
- TGI [2]: 29 µM
- GI50 [3]: 15.5 µM
- TGI [3]: 32 µM
- GI50 [4]: 25.7 µM
- TGI [4]: 66 µM
- GI50 [5]: 16.7 µM
- TGI [5]: 31.6 µM
- GI50 [6]: 16.6 µM
- TGI [6]: 42 µM
- GI50 [7]: 13.1 µM
- TGI [7]: 27.6 µM
- GI50 [8]: 21.2 µM
- TGI [8]: > 100 µM
- GI50 [9]: 23.4 µM
- TGI [9]: 52.9 µM
- GI50 [10]: 6.08 µM
- TGI [10]: 19.2 µM

SMILES: Nc1ncnc2c1ccn2[C@@H]1O[C@H]([C@H](O)c2ccc(Cl)c(F)c2)[C@@H](O)[C@H]1O
- GI50 [1]: > 100 µM
- TGI [1]: > 100 µM
- GI50 [2]: > 100 µM
- TGI [2]: > 100 µM
- GI50 [3]: > 100 µM
- TGI [3]: > 100 µM
- GI50 [4]: > 100 µM
- TGI [4]: > 100 µM
- GI50 [5]: 92.6 µM
- TGI [5]: > 100 µM
- GI50 [6]: > 100 µM
- TGI [6]: > 100 µM
- GI50 [7]: > 100 µM
- TGI [7]: > 100 µM
- GI50 [8]: 36 µM
- TGI [8]: > 100 µM
- GI50 [9]: > 100 µM
- TGI [9]: > 100 µM
- GI50 [10]: > 100 µM
- TGI [10]: > 100 µM

SMILES: COc1ccc(/C=C2\c3cc(OC)c(OC)c(OC)c3CC[C@@H]2O)cc1F
- GI50 [1]: 1.03 µM
- TGI [1]: 7.59 µM
- GI50 [2]: 0.322 µM
- TGI [2]: > 100 µM
- GI50 [3]: 25 µM
- TGI [3]: > 100 µM
- GI50 [4]: 1.1 µM
- TGI [4]: > 100 µM
- GI50 [5]: 0.234 µM
- TGI [5]: 17.2 µM
- GI50 [6]: 0.373 µM
- TGI [6]: > 100 µM
- GI50 [7]: 0.492 µM
- TGI [7]: > 100 µM
- GI50 [8]: 1.36 µM
- TGI [8]: 13.4 µM
- GI50 [9]: 7.54 µM
- TGI [9]: > 100 µM
- GI50 [10]: 0.395 µM
- TGI [10]: 48.6 µM

SMILES: Cc1nccc2c3ccc(OCc4cn(-c5ccc(Cl)cc5)nn4)cc3n(CC(C)C)c12
- GI50 [1]: 1.51 µM
- TGI [1]: 6.8 µM
- GI50 [2]: 11.5 µM
- TGI [2]: > 33.3 µM
- GI50 [3]: 1.19 µM
- TGI [3]: 13.6 µM
- GI50 [4]: 2.24 µM
- TGI [4]: 15.1 µM
- GI50 [5]: 1.64 µM
- TGI [5]: 6.15 µM
- GI50 [6]: 2.69 µM
- TGI [6]: 16.8 µM
- GI50 [7]: 2.09 µM
- TGI [7]: 8.33 µM
- GI50 [8]: 1.25 µM
- TGI [8]: 10.4 µM
- GI50 [9]: 4.14 µM
- TGI [9]: 18.2 µM
- GI50 [10]: 3.63 µM
- TGI [10]: > 33.3 µM

SMILES: CCn1ccc(NS(=O)(=O)c2ccc(N)cc2)nc1=O
- GI50 [1]: > 100 µM
- TGI [1]: > 100 µM
- GI50 [2]: > 100 µM
- TGI [2]: > 100 µM
- GI50 [3]: > 100 µM
- TGI [3]: > 100 µM
- GI50 [4]: > 100 µM
- TGI [4]: > 100 µM
- GI50 [5]: > 100 µM
- TGI [5]: > 100 µM
- GI50 [6]: > 100 µM
- TGI [6]: > 100 µM
- GI50 [7]: > 100 µM
- TGI [7]: > 100 µM
- GI50 [8]: > 100 µM
- TGI [8]: > 100 µM
- GI50 [9]: > 100 µM
- TGI [9]: > 100 µM
- GI50 [10]: > 100 µM
- TGI [10]: > 100 µM

SMILES: COc1cc(/C=C/C(=O)c2c(C)nc3ccccc3c2C)ccc1OCCCN1CCN(C(=O)c2ccco2)CC1
- GI50 [1]: 11 µM
- TGI [1]: 23 µM
- GI50 [2]: 9.78 µM
- TGI [2]: 21.4 µM
- TGI [3]: 4.74 µM
- GI50 [4]: 8.85 µM
- TGI [4]: > 100 µM
- GI50 [5]: 2.12 µM
- TGI [5]: 12.6 µM
- GI50 [6]: 11.4 µM
- TGI [6]: 24.3 µM
- GI50 [7]: 7.83 µM
- TGI [7]: 20.5 µM
- GI50 [8]: 7.71 µM
- TGI [8]: 23.2 µM
- GI50 [9]: 12.7 µM
- TGI [9]: 25.3 µM
- GI50 [10]: 7.75 µM
- TGI [10]: 21.5 µM

SMILES: Cc1cc(=O)oc2cc(OC/C=C3\CCC(=O)O3)ccc12
- GI50 [1]: 5.8 µM
- TGI [1]: 20.5 µM
- GI50 [2]: 5.31 µM
- TGI [2]: 22.9 µM
- GI50 [3]: 12.1 µM
- TGI [3]: 28.4 µM
- GI50 [4]: 15.8 µM
- TGI [4]: 37.4 µM
- GI50 [5]: 17.6 µM
- TGI [5]: 37 µM
- GI50 [6]: 18 µM
- TGI [6]: 47.9 µM
- GI50 [7]: 10.5 µM
- TGI [7]: 44.1 µM
- GI50 [8]: 9.7 µM
- TGI [8]: 29.3 µM
- GI50 [9]: 16.4 µM
- TGI [9]: 33.6 µM
- GI50 [10]: 7.99 µM
- TGI [10]: 22.9 µM

SMILES: Nc1c(F)cc(-c2nc3cc(F)ccc3[se]2)cc1Br
- GI50 [1]: 0.0536 µM
- TGI [1]: > 100 µM
- GI50 [2]: > 54.8 µM
- TGI [2]: > 100 µM
- GI50 [3]: 0.526 µM
- TGI [3]: 19.4 µM
- GI50 [4]: 0.15 µM
- TGI [4]: > 100 µM
- GI50 [5]: 0.104 µM
- TGI [5]: > 100 µM
- GI50 [6]: 0.15 µM
- TGI [6]: > 100 µM
- GI50 [7]: 10.6 µM
- TGI [7]: 50.4 µM
- GI50 [8]: 0.0651 µM
- GI50 [9]: > 100 µM
- TGI [9]: > 100 µM
- GI50 [10]: 14.1 µM
- TGI [10]: > 100 µM

SMILES: Cc1cc(Cl)cc(Cc2cc(Cl)cc(C)c2O)c1O
- GI50 [1]: 5.72 µM
- TGI [1]: 18.8 µM
- GI50 [2]: 3.47 µM
- TGI [2]: 17 µM
- GI50 [3]: 0.397 µM
- TGI [3]: 2.83 µM
- GI50 [4]: 3.29 µM
- TGI [4]: 50.6 µM
- GI50 [5]: 1.71 µM
- TGI [5]: 3.61 µM
- GI50 [6]: 2.85 µM
- TGI [6]: 10.2 µM
- GI50 [7]: 2.48 µM
- TGI [7]: 7.76 µM
- GI50 [8]: 3.63 µM
- TGI [8]: 10.7 µM
- GI50 [9]: 3.46 µM
- TGI [9]: 15.2 µM
- GI50 [10]: 3 µM
- TGI [10]: 8.9 µM

SMILES: COc1ccc(N(C)c2nc(Cl)nc3cnn(C)c23)cc1
- GI50 [1]: < 0.01 µM
- TGI [1]: 0.058 µM
- GI50 [2]: 0.0171 µM
- TGI [2]: > 100 µM
- GI50 [3]: < 0.01 µM
- TGI [3]: 7.95 µM
- GI50 [4]: 0.0795 µM
- TGI [4]: > 100 µM
- GI50 [5]: < 0.01 µM
- TGI [5]: 0.0874 µM
- GI50 [6]: < 0.01 µM
- TGI [6]: > 100 µM
- GI50 [7]: < 0.01 µM
- TGI [7]: > 100 µM
- GI50 [8]: < 0.01 µM
- TGI [8]: > 100 µM
- GI50 [9]: 12.8 µM
- TGI [9]: > 100 µM
- GI50 [10]: < 0.011 µM
- TGI [10]: > 100 µM

SMILES: COc1ccc2c(c1)C(=O)c1c-2c(Nc2cccc(C(C)=O)c2)nc2ccccc12
- GI50 [1]: 37.9 µM
- TGI [1]: > 100 µM
- GI50 [2]: 11.7 µM
- TGI [2]: 32.2 µM
- GI50 [3]: 11.1 µM
- TGI [3]: 27.7 µM
- GI50 [4]: 15.5 µM
- TGI [4]: > 100 µM
- GI50 [5]: 5.22 µM
- TGI [5]: 18.9 µM
- GI50 [6]: 27 µM
- TGI [6]: > 100 µM
- GI50 [7]: 3.78 µM
- TGI [7]: 14 µM
- GI50 [8]: 21.2 µM
- TGI [8]: > 100 µM
- GI50 [9]: 15.1 µM
- TGI [9]: 64.6 µM
- GI50 [10]: 13.4 µM
- TGI [10]: 27.5 µM

SMILES: CCN(Cc1ccc(F)cc1)c1ccc(CO)c(OC)c1
- GI50 [1]: 13.4 µM
- TGI [1]: 29.7 µM
- GI50 [2]: 27.6 µM
- TGI [2]: > 95.2 µM
- GI50 [3]: 7.29 µM
- TGI [3]: 37.2 µM
- GI50 [4]: 7.02 µM
- TGI [4]: 20.6 µM
- GI50 [5]: 11.9 µM
- TGI [5]: 24.9 µM
- GI50 [6]: 36.5 µM
- TGI [6]: > 100 µM
- GI50 [7]: 21.4 µM
- TGI [7]: 65.1 µM
- GI50 [8]: 24 µM
- TGI [8]: > 67.5 µM
- GI50 [9]: 20.2 µM
- TGI [9]: > 100 µM
- GI50 [10]: 27.8 µM
- TGI [10]: > 100 µM

SMILES: N#CC1C(=O)NC(c2ccccc2[N+](=O)[O-])c2sc3c(F)cccc3c21 (stereo not drawn)
- GI50 [1]: 8.05 µM
- TGI [1]: 58.4 µM
- GI50 [2]: 8.16 µM
- TGI [2]: 46.1 µM
- GI50 [3]: 11.3 µM
- TGI [3]: 47.3 µM
- GI50 [4]: 1.5 µM
- TGI [4]: 44.7 µM
- GI50 [5]: 14.3 µM
- TGI [5]: 33.8 µM
- GI50 [6]: 20 µM
- TGI [6]: 51.4 µM
- GI50 [7]: 33 µM
- TGI [7]: > 100 µM
- GI50 [8]: 11.5 µM
- TGI [8]: > 93.9 µM
- GI50 [9]: 29.5 µM
- TGI [9]: > 100 µM
- GI50 [10]: 15.9 µM
- TGI [10]: 37.8 µM
